Experimental data as given in PubChem BioAssay (NCI).
Several values for one entry are separate records, joined by “and”; a condition that tells them apart may be missing. Equal values may be shown once.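 Where inhibition never reached the appropriate level, the endpoint shown equals the highest concentration tested. Otherwise, values were interpolated linearly from a five-concentration, 48-hour dose response in 96-well plates. GI50 marks 50% less growth. TGI marks complete inhibition of growth.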

Experiments:
Test in all cases: NCI tumour cell line growth inhibition, 48 h
786-0 renal = system: 786-0 renal
A498 renal = system: A498 renal
A549 NSCLC = system: A549 NSCLC
ACHN renal = system: ACHN renal
BT-549 breast = system: BT-549 breast
CAKI-1 renal = system: CAKI-1 renal
CCRF-CEM leukemia = system: CCRF-CEM leukemia
COLO 205 colon = system: COLO 205 colon
DU-145 prostate = system: DU-145 prostate
EKVX NSCLC = system: EKVX NSCLC
HCC-2998 colon = system: HCC-2998 colon
HCT-116 colon = system: HCT-116 colon
HCT-15 colon = system: HCT-15 colon
HL-60(TB) leukemia = system: HL-60(TB) leukemia
HOP-62 NSCLC = system: HOP-62 NSCLC
HOP-92 NSCLC = system: HOP-92 NSCLC
HS 578T breast = system: HS 578T breast
HT29 colon = system: HT29 colon
IGROV1 ovarian = system: IGROV1 ovarian
K-562 leukemia = system: K-562 leukemia
KM12 colon = system: KM12 colon
LOX IMVI melanoma = system: LOX IMVI melanoma
M14 melanoma = system: M14 melanoma
MALME-3M melanoma = system: MALME-3M melanoma
MCF7 breast = system: MCF7 breast
MDA-MB-231 breast = system: MDA-MB-231 breast
MDA-MB-435 = system: MDA-MB-435
MOLT-4 leukemia = system: MOLT-4 leukemia
NCI-H226 lung = system: NCI-H226 lung
NCI-H23 lung = system: NCI-H23 lung
NCI-H460 lung = system: NCI-H460 lung
NCI-H522 lung = system: NCI-H522 lung
NCI/ADR-RES ovarian = system: NCI/ADR-RES ovarian
OVCAR-3 ovarian = system: OVCAR-3 ovarian
OVCAR-4 ovarian = system: OVCAR-4 ovarian
OVCAR-5 ovarian = system: OVCAR-5 ovarian
OVCAR-8 ovarian = system: OVCAR-8 ovarian
PC-3 prostate = system: PC-3 prostate
RPMI-8226 leukemia = system: RPMI-8226 leukemia
RXF 393 renal = system: RXF 393 renal
SF-268 CNS = system: SF-268 CNS
SF-295 CNS = system: SF-295 CNS
SF-539 CNS = system: SF-539 CNS
SK-MEL-2 melanoma = system: SK-MEL-2 melanoma
SK-MEL-28 melanoma = system: SK-MEL-28 melanoma
SK-MEL-5 melanoma = system: SK-MEL-5 melanoma
SK-OV-3 ovarian = system: SK-OV-3 ovarian
SN12C renal = system: SN12C renal
SNB-19 CNS = system: SNB-19 CNS
SNB-75 CNS = system: SNB-75 CNS
SR leukemia = system: SR leukemia
SW-620 colon = system: SW-620 colon
T-47D breast = system: T-47D breast
TK-10 renal = system: TK-10 renal
U251 CNS = system: U251 CNS
UACC-257 melanoma = system: UACC-257 melanoma
UACC-62 melanoma = system: UACC-62 melanoma
UO-31 renal = system: UO-31 renal

Compound: C[C@@H]1COCCN1c1cc(-c2ccnn2C)c2ccnc(-c3ccn[nH]3)c2n1
- GI50 (786-0 renal): 40.6 nM and 79 nM
- TGI (786-0 renal): 483 nM
- GI50 (A498 renal): 21.2 nM and 37.3 nM
- TGI (A498 renal): 83.8 nM and 226 nM
- GI50 (A549 NSCLC): 62.3 nM and 190 nM
- GI50 (ACHN renal): 41.7 nM
- TGI (ACHN renal): 596 nM
- GI50 (BT-549 breast): 48.1 nM and 69.1 nM
- TGI (BT-549 breast): 876 nM and 1760 nM
- GI50 (CAKI-1 renal): 125 nM and 223 nM
- TGI (CAKI-1 renal): 900 nM and 1800 nM
- GI50 (CCRF-CEM leukemia): 17.5 nM and 30 nM
- TGI (CCRF-CEM leukemia): > 23700 nM
- GI50 (COLO 205 colon): 280 nM and 573 nM
- TGI (COLO 205 colon): 5700 nM and > 23400 nM
- GI50 (DU-145 prostate): 99.2 nM and 202 nM
- TGI (DU-145 prostate): > 100000 nM
- GI50 (EKVX NSCLC): 205 nM and 349 nM
- TGI (EKVX NSCLC): 8110 nM and > 28600 nM
- GI50 (HCC-2998 colon): 27.7 nM and 58.1 nM
- TGI (HCC-2998 colon): 18600 nM and > 100000 nM
- GI50 (HCT-116 colon): 159 nM and 228 nM
- TGI (HCT-116 colon): 16300 nM and > 59000 nM
- GI50 (HCT-15 colon): 34.4 nM and 96.8 nM
- TGI (HCT-15 colon): > 100000 nM
- GI50 (HL-60(TB) leukemia): 106 nM and 194 nM
- TGI (HL-60(TB) leukemia): 660 nM and 3160 nM
- GI50 (HOP-62 NSCLC): 112 nM and 216 nM
- TGI (HOP-62 NSCLC): 1940 nM
- GI50 (HOP-92 NSCLC): 81.5 nM and 175 nM
- TGI (HOP-92 NSCLC): 651 nM and 3080 nM
- GI50 (HS 578T breast): 99.4 nM and 291 nM
- TGI (HS 578T breast): 643 nM and 2060 nM
- GI50 (HT29 colon): 237 nM and 389 nM
- TGI (HT29 colon): 36400 nM and > 100000 nM
- GI50 (IGROV1 ovarian): 71.5 nM and 195 nM
- GI50 (K-562 leukemia): 84.4 nM and 384 nM
- TGI (K-562 leukemia): > 100000 nM
- GI50 (KM12 colon): 176 nM and 171 nM
- TGI (KM12 colon): > 100000 nM
- GI50 (LOX IMVI melanoma): 57.2 nM and 118 nM
- TGI (LOX IMVI melanoma): 421 nM and 1510 nM
- GI50 (M14 melanoma): 29.1 nM and 47.1 nM
- GI50 (MALME-3M melanoma): 179 nM and 273 nM
- TGI (MALME-3M melanoma): 1520 nM and 3700 nM
- GI50 (MCF7 breast): 15.8 nM and 42.5 nM
- TGI (MCF7 breast): 23800 nM and > 100000 nM
- GI50 (MDA-MB-231 breast): 223 nM and 386 nM
- TGI (MDA-MB-231 breast): 10700 nM and > 69900 nM
- GI50 (MDA-MB-435): 98.4 nM and 199 nM
- TGI (MDA-MB-435): 2890 nM and 5000 nM
- GI50 (MOLT-4 leukemia): 31.9 nM and 75.1 nM
- TGI (MOLT-4 leukemia): 9080 nM
- GI50 (NCI-H226 lung): 241 nM and 474 nM
- GI50 (NCI-H23 lung): 30.3 nM and 75 nM
- GI50 (NCI-H460 lung): 56.1 nM and 128 nM
- GI50 (NCI-H522 lung): 172 nM and 528 nM
- GI50 (NCI/ADR-RES ovarian): 101 nM and 280 nM
- TGI (NCI/ADR-RES ovarian): 2430 nM and 4780 nM
- GI50 (OVCAR-3 ovarian): 223 nM and 406 nM
- GI50 (OVCAR-4 ovarian): 109 nM and 181 nM
- TGI (OVCAR-4 ovarian): 1740 nM
- GI50 (OVCAR-5 ovarian): 103 nM and 193 nM
- TGI (OVCAR-5 ovarian): > 100000 nM
- GI50 (OVCAR-8 ovarian): 170 nM and 415 nM
- GI50 (PC-3 prostate): 275 nM and 454 nM
- TGI (PC-3 prostate): > 100000 nM
- GI50 (RPMI-8226 leukemia): 177 nM and 202 nM
- TGI (RPMI-8226 leukemia): 3010 nM and 5400 nM
- GI50 (RXF 393 renal): 23.6 nM and 85.1 nM
- TGI (RXF 393 renal): 77.6 nM and 497 nM
- GI50 (SF-268 CNS): 238 nM and 449 nM
- GI50 (SF-295 CNS): 57 nM and 110 nM
- TGI (SF-295 CNS): 648 nM and 1150 nM
- GI50 (SF-539 CNS): 70.4 nM and 142 nM
- TGI (SF-539 CNS): 547 nM and 1230 nM
- GI50 (SK-MEL-2 melanoma): 64 nM and 161 nM
- TGI (SK-MEL-2 melanoma): 734 nM and 1850 nM
- GI50 (SK-MEL-28 melanoma): 361 nM and 777 nM
- TGI (SK-MEL-28 melanoma): 4200 nM and 16800 nM
- GI50 (SK-MEL-5 melanoma): 222 nM and 286 nM
- TGI (SK-MEL-5 melanoma): 766 nM and 2520 nM
- GI50 (SK-OV-3 ovarian): 92.8 nM and 215 nM
- TGI (SK-OV-3 ovarian): 732 nM and 2060 nM
- GI50 (SN12C renal): 184 nM and 314 nM
- TGI (SN12C renal): > 100000 nM
- GI50 (SNB-19 CNS): 230 nM and 310 nM
- TGI (SNB-19 CNS): > 100000 nM
- GI50 (SNB-75 CNS): 87 nM and 219 nM
- TGI (SNB-75 CNS): 596 nM and 1800 nM
- GI50 (SR leukemia): 24.1 nM and 103 nM
- GI50 (SW-620 colon): 259 nM and 603 nM
- TGI (SW-620 colon): > 100000 nM
- GI50 (T-47D breast): 159 nM and 384 nM
- TGI (T-47D breast): 790 nM and 2810 nM
- GI50 (TK-10 renal): 71.5 nM and 313 nM
- TGI (TK-10 renal): 1570 nM and 7000 nM
- GI50 (U251 CNS): 260 nM and 1000 nM
- TGI (U251 CNS): 14600 nM and > 100000 nM
- GI50 (UACC-257 melanoma): 264 nM and 721 nM
- TGI (UACC-257 melanoma): 2810 nM and 6900 nM
- GI50 (UACC-62 melanoma): 125 nM and 163 nM
- TGI (UACC-62 melanoma): 876 nM and 1300 nM
- GI50 (UO-31 renal): 74.1 nM and 152 nM
- TGI (UO-31 renal): 792 nM and 1920 nM
